In assay [1] the target is Sphingosine 1-phosphate receptor 2 (Homo sapiens, UniProt O95136). It is filed as functional.
For assay [2], the target named is Sphingosine 1-phosphate receptor 2 (Rattus norvegicus, UniProt P47752). It is filed as functional.
The target of assay [3] is CREB-binding protein (Homo sapiens, UniProt Q92793).
Chain of CREB-binding protein (Q92793 whole entry): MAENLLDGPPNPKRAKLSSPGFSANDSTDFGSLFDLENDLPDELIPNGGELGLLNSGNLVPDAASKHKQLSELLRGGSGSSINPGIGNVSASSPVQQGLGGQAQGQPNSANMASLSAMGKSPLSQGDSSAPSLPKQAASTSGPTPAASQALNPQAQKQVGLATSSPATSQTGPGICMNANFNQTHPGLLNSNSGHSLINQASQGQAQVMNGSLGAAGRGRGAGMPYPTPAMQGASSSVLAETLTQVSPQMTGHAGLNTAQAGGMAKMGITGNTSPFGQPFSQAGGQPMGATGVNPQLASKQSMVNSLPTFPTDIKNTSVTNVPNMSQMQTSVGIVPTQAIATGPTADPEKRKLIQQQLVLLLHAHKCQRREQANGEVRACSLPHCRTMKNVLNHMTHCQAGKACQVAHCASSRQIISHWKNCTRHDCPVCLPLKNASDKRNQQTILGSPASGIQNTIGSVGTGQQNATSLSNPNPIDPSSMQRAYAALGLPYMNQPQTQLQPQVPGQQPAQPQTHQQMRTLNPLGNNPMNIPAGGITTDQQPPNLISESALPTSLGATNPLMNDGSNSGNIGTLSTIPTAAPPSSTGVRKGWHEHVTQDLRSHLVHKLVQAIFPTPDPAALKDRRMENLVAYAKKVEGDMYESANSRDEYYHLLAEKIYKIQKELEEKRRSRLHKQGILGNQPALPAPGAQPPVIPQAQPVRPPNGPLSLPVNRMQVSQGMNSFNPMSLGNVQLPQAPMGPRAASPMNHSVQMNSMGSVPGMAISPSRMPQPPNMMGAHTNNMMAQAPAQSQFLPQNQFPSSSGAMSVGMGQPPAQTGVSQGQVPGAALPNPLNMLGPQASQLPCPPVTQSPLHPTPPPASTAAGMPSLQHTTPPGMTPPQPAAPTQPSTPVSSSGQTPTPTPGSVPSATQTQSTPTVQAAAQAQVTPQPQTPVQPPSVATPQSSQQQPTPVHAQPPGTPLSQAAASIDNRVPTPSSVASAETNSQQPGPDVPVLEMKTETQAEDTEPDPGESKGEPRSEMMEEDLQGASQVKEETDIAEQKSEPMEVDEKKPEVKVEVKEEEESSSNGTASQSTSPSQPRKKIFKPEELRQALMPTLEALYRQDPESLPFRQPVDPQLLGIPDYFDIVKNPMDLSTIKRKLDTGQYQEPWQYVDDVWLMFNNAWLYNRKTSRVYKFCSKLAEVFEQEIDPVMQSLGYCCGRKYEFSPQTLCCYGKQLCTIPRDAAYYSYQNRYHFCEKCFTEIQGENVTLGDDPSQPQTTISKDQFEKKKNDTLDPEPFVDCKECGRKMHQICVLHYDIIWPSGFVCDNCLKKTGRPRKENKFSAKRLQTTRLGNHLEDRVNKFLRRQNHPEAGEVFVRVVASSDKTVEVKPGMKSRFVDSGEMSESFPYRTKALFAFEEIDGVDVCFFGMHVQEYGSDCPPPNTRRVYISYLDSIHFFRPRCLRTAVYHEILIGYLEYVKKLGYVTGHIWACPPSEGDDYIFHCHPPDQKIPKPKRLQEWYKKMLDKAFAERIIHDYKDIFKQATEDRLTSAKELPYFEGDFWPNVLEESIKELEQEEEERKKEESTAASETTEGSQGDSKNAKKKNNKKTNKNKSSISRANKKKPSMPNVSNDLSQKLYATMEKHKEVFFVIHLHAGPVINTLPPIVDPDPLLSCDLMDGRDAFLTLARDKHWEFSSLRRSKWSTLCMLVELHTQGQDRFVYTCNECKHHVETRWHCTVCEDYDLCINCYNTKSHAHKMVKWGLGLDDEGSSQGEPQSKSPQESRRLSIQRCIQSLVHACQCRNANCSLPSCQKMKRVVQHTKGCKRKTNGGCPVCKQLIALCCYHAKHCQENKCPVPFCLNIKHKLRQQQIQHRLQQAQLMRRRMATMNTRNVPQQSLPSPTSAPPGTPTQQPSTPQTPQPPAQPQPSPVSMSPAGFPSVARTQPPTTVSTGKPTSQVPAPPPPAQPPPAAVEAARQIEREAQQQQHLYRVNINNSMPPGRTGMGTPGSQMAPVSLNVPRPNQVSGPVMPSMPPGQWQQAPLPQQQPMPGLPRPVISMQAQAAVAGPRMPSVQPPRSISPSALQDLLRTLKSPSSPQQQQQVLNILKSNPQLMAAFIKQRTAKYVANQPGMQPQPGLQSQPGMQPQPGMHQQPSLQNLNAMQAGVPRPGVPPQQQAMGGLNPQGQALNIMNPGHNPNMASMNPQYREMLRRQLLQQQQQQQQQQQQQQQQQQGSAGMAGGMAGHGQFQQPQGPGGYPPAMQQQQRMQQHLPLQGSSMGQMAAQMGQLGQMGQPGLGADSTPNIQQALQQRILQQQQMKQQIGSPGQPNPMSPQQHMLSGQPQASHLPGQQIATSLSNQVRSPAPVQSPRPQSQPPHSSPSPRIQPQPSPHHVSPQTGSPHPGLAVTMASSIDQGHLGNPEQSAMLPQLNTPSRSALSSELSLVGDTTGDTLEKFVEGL

Chain of Sphingosine 1-phosphate receptor 2 (Homo sapiens, UniProt O95136) (O95136 whole entry): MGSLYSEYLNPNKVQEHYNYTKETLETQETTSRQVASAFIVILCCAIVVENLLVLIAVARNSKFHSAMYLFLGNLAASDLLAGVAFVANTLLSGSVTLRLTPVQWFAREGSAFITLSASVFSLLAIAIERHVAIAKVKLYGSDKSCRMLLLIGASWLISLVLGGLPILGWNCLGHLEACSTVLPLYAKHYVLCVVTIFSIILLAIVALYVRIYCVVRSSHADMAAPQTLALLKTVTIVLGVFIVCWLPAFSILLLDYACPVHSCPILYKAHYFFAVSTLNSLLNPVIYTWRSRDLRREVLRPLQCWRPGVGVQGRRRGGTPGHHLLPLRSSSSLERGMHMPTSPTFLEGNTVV
Chain of Sphingosine 1-phosphate receptor 2 (Rattus norvegicus, UniProt P47752) (P47752 whole entry): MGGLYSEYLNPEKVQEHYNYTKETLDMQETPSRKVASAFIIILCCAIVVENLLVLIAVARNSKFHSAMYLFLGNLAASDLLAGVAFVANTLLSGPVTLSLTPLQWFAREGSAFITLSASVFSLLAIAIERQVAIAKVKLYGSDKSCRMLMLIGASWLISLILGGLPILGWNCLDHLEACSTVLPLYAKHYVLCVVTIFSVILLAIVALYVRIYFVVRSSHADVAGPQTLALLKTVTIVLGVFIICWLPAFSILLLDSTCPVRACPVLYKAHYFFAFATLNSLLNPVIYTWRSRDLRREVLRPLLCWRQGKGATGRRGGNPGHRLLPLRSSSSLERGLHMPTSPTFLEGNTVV

On to `Cc1nn(C)c2nc(NNC(=O)Nc3cc(Cl)nc(Cl)c3)cc(C(C)C)c12`, for which the IC50 in assay [1] and in assay [2] was 20 nM in each case.
In the case of `O=C1[C@H](Cc2ccc(O)cc2)N2C(=O)CCN(C(=O)NCc3ccccc3)[C@H]2CN1Cc1cccc2ccccc12`, in assay [3], the IC50 (commonly the point on the concentration scale where inhibition reaches its midpoint) was 3000 nM.

Values taken from ChEMBL document CHEMBL4270539, “Fibrogenic Disorders in Human Diseases: From Inflammation to Organ Dysfunction” (J Med Chem, 2018).
